{
  "source": "paper PMC6658769",
  "about": "“First-Time-in-Human Study and Prediction of Early Bactericidal Activity for GSK3036656, a Potent Leucyl-tRNA Synthetase Inhibitor for Tuberculosis Treatment” (Antimicrobial Agents and Chemotherapy, 2019)",
  "key": {"[1]": {"system": "panel of common bacterial pathogens", "assay": "Activity against a panel of common bacterial pathogens", "assay_type": "cell-based"}, "[2]": {"system": "M. tuberculosis H37Rv", "assay": "Acute lung infection model in mice", "assay_type": "in vivo, C57BL/6 mice", "description": "The efficacy of GSK3036656 was assessed in C57BL/6 mice having acute and chronic lung infections by M. tuberculosis H37Rv, which mimic infections by actively replicating and nonreplicating/slow-replicating mycobacteria, respectively ([13], [14]). In the acute model, 10 mice were administered different daily oral doses ranging from 0.1 to 100 mg/kg of body weight for 8 days starting 1 day after infection. A maximum difference of 3.6 log CFU was obtained in the lungs compared to untreated mice. […] In the chronic model, a total of 18 mice were administered doses ranging from 0.1 to 30 mg/kg from weeks 6 to 14 after infection. Maximum reduction (drop of 2.1 log10 CFU in the lungs) was achieved after 2 months of daily oral treatment and after fitting the data to a sigmoidal curve. The EDmax for GSK3036656 was estimated as 1.3 mg/kg ([…], 0.7 to 3.4 mg/kg). […] Some additional groups treated at 0.3 to 30 mg/kg were studied in the chronic model to obtain kinetic data (from 2 to 16 weeks of treatment)."}, "[3]": {"assay": "Nonclinical toxicity studies (NOAEL exposure)", "assay_type": "in vivo", "conditions": "oral", "excerpt": "The principal findings observed in nonclinical toxicity studies following oral administration of GSK3036656 were cardiovascular and hematopoietic, with some minor changes in the liver, kidney, and thymus. The hematopoietic, kidney, liver, and thymus effects are considered either nonadverse or monitorable in the clinic. The structural cardiovascular changes that occurred in a single species at high doses were nonmonitorable but occurred at plasma concentrations where heart rate (HR) and blood pressure (BP) changes are recorded. Specific cardiovascular safety endpoints were included in the first-time-in-human (FTIH) study, including vital sign (HR and BP) stopping criteria."}, "[4]": {"assay": "in vitro", "assay_type": "in vitro ADME", "conditions": "mouse, plasma"}, "[5]": {"assay": "in vitro", "assay_type": "in vitro ADME", "conditions": "rat, plasma"}, "[6]": {"assay_type": "in vitro ADME", "conditions": "not told"}, "[7]": {"biological_target": "P-glycoprotein (P-gp) (Homo sapiens, UniProt P08183)", "sequence (P08183 whole entry)": "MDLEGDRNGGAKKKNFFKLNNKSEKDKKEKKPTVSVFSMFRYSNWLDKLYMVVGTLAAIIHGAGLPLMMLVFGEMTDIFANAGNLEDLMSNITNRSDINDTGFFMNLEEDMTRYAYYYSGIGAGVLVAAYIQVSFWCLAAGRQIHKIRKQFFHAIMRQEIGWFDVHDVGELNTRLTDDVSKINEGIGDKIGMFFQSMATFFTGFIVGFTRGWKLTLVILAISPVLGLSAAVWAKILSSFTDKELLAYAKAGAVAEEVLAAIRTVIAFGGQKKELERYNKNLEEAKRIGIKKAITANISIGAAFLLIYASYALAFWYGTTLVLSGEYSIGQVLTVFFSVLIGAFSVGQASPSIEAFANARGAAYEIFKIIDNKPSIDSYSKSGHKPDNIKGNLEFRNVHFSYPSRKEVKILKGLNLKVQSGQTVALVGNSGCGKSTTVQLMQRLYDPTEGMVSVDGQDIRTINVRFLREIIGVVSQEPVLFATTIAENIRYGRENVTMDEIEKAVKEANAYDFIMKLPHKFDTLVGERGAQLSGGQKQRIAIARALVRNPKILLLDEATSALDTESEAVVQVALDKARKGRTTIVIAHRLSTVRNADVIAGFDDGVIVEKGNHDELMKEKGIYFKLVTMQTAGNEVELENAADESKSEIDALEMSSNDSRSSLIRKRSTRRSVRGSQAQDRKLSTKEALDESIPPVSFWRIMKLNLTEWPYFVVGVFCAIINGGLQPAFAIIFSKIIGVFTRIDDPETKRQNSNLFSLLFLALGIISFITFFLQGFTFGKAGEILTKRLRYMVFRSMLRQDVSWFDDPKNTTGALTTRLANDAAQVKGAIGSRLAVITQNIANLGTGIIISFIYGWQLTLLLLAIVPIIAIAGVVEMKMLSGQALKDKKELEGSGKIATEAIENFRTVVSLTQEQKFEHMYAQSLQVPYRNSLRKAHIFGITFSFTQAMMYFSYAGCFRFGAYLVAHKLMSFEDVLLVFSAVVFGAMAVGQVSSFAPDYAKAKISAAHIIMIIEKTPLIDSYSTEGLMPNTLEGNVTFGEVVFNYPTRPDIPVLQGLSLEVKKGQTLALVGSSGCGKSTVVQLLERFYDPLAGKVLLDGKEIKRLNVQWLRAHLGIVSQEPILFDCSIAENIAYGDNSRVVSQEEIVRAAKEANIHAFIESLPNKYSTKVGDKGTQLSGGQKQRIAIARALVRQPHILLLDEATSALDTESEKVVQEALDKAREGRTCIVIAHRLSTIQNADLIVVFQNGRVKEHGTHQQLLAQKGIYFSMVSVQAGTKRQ", "assay": "P-gp substrate assessment", "assay_type": "in vitro ADME", "conditions": "not told"}, "[8]": {"biological_target": "breast cancer resistance protein (Homo sapiens, UniProt Q9UNQ0)", "sequence (Q9UNQ0 whole entry)": "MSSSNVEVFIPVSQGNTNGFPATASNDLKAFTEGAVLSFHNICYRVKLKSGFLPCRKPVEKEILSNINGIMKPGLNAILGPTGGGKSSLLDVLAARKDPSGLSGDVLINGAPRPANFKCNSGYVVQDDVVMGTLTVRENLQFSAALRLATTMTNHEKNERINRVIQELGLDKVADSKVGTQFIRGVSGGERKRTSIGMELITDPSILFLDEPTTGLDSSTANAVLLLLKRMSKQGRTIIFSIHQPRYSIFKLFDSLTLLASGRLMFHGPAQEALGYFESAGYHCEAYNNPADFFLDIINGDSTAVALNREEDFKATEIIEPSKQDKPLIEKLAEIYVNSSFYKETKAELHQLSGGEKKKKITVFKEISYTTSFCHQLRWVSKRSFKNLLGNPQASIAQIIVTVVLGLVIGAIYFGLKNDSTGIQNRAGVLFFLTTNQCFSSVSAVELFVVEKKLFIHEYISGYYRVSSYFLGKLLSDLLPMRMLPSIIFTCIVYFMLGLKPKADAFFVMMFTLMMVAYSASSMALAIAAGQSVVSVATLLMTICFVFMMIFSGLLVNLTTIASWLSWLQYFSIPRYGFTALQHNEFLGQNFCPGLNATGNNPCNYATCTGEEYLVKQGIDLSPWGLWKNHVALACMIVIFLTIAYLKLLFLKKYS", "assay": "BCRP substrate assessment", "assay_type": "in vitro ADME", "conditions": "in vitro"}, "[9]": {"biological_target": "CYP3A4 (Homo sapiens, UniProt P08684)", "sequence (P08684 whole entry)": "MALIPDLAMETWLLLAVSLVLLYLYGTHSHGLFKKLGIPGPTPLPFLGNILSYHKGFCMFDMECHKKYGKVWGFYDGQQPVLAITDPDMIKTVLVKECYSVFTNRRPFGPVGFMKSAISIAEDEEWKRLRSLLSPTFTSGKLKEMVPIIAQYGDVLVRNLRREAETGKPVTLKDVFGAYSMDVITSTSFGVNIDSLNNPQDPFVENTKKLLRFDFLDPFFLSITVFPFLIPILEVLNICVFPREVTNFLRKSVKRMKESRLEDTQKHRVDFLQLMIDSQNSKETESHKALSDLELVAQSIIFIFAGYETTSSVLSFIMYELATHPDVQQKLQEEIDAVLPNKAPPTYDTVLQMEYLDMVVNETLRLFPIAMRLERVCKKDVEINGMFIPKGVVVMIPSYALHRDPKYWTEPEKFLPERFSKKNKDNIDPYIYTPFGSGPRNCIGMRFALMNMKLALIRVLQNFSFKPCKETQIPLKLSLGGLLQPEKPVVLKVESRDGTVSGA", "assay": "Metabolism-dependent inhibition or induction of CYP3A4", "assay_type": "in vitro ADME", "conditions": "in vitro"}, "[10]": {"conditions": "rat, in vivo"}, "[11]": {"conditions": "dog, in vivo"}, "[12]": {"assay": "Stability in pooled and spiked urine", "assay_type": "physicochemical, human", "conditions": "multiple freeze-thaw cycles and prolonged exposure to light"}, "[13]": {"system": "M. tuberculosis fast-growing and slow-growing populations", "assay": "PK/PD parameters estimated from acute and chronic mouse infection models", "assay_type": "in vivo", "conditions": "for EC50: Mycobacterium tuberculosis"}, "[14]": {"system": "M. tuberculosis bacterial strain H37Rv", "set-up": "method as in PMID 28953378", "conditions": "in vitro; cited from earlier work"}, "[15]": {"biological_target": "M. tuberculosis enzyme leucyl-tRNA synthetase (LeuRS)", "set-up": "method as in PMID 28953378", "conditions": "LeuRS aminoacylation assay; cited from earlier work"}, "[16]": {"conditions": "both, human, in vivo"}, "[17]": {"conditions": "human, in vivo"}, "[18]": {"conditions": "human, in vivo", "remark": "listed apart in the source"}, "[19]": {"assay": "Food effect study (part A, high-fat meal)", "conditions": "5 mg; for half-life: human, plasma, po, t1/2, geometric LS mean"}, "[20]": {"assay": "Population PK model at completion of the study"}, "[21]": {"assay": "FTIH study part A (single dose): safety and tolerability"}},
  "note": "Where two headings read alike, the source gives them in different places. Marks after values point to notes of the source that are not given here.",
  "data": [
    {"smiles": "NC[C@H]1OB(O)c2c(OCCO)ccc(Cl)c21", "note": "[GSK3036656, (S)-3-(aminomethyl)-4-chloro-7-(2-hydroxyethoxy)benzo[c][1,2]oxaborol-1(3H)-ol]", "values": [
      {"measurement": "activity against a panel of common bacterial pathogens", "setting": "[1]", "value": "inactivity"},
      {"measurement": "maximum difference in the lungs compared to untreated mice", "setting": "[2]; daily oral doses 0.1 to 100 mg/kg for 8 days", "value": 3.6, "unit": "log CFU"},
      {"measurement": "EDmax (effective dose giving 90% of the total effect)", "setting": "[2]; sigmoidal fit", "value": 1.1, "unit": "mg/kg"},
      {"measurement": "AUC", "setting": "[3]; plasma", "value": 4900, "unit": "ng·h/mL"},
      {"measurement": "Cmax", "setting": "[3]; serum", "value": "< 443", "unit": "ng/mL"},
      {"measurement": "fraction unbound", "setting": "[4]", "value": 0.792},
      {"measurement": "fraction unbound", "setting": "[5]", "value": 0.688},
      {"measurement": "passive permeability", "setting": "[6]", "value": "moderate"},
      {"measurement": "P-gp substrate", "setting": "[7]", "value": "not a P-glycoprotein (P-gp) substrate"},
      {"measurement": "substrate specificity for breast cancer resistance protein", "setting": "[8]", "value": "lack of substrate specificity"},
      {"measurement": "metabolism-dependent inhibition or induction of CYP3A4", "setting": "[9]", "value": "no evidence"},
      {"measurement": "oral bioavailability", "setting": "[10]", "value": "very high"},
      {"measurement": "oral bioavailability", "setting": "[11]", "value": "very high"},
      {"measurement": "stability in pooled and spiked urine", "setting": "[12]", "value": "degraded to GSK3635633"},
      {"measurement": "EC50", "setting": "[13]; fast-growing population, SE = 13%, read-out: EC50-F in mouse", "value": 0.0156, "unit": "µg/mL"},
      {"measurement": "EC50", "setting": "[13]; slow-growing population, SE = 23%, read-out: EC50-S in mouse", "value": 0.0317, "unit": "µg/mL"},
      {"measurement": "Emax-S (maximum killing rate against a slow-growing population)", "setting": "[13]; fixed to estimated value from mouse infection models", "value": "0.0037 (FIX)^b h^−1"},
      {"measurement": "MIC", "setting": "[14]", "value": 0.0235, "unit": "µg/mL"},
      {"measurement": "50% inhibitory concentration (IC50)", "setting": "[15]", "value": 0.0588, "unit": "µg/mL"},
      {"measurement": "dose-proportionality slope, AUC0–t", "setting": "[16]", "value": 1.32},
      {"measurement": "dose-proportionality slope, Cmax and AUC0–∞", "setting": "[16]", "value": 0.96},
      {"measurement": "dose-proportionality slope, Cmax", "setting": "[17]; both", "value": 1.19},
      {"measurement": "steady-state AUC relative to the target exposure for efficacy in humans (1,740 ng · h/ml)", "setting": "[17]; both", "value": "approximately 2.5 fold"},
      {"measurement": "accumulation of Cmax and AUC0–τ with repeated administration", "setting": "[17]; both, 14 days", "value": "2-3 fold"},
      {"measurement": "dose-proportionality slope, Cmax", "setting": "[17]; both, 14 days", "value": 1.06},
      {"measurement": "RoCmax, geometric LS mean, Ref", "setting": "[17]; 5 mg", "value": 48.40, "unit": "ng/mL"},
      {"measurement": "RoCmax, geometric LS mean, Test", "setting": "[17]; 5 mg", "value": 97.04, "unit": "ng/mL"},
      {"measurement": "RoCmax, geometric LS mean, Ref", "setting": "[17]; 15 mg", "value": 178.79, "unit": "ng/mL"},
      {"measurement": "RoCmax, geometric LS mean, Test", "setting": "[17]; 15 mg", "value": 309.55, "unit": "ng/mL"},
      {"measurement": "Tmax difference (fed-fasted)", "setting": "[18]", "value": "0.75^b h"},
      {"measurement": "t1/2 ratio", "setting": "[19]; fed vs fasted", "value": 0.89},
      {"measurement": "half-life", "setting": "[19]; Ref, 5 mg fasted, n = 6", "value": 38.6, "unit": "h"},
      {"measurement": "half-life", "setting": "[19]; Test, 5 mg fed, n = 5", "value": 34.4, "unit": "h"},
      {"measurement": "CL/F, bootstrap median estimate", "setting": "[20]; bootstrap (1,000 runs)", "value": 3.7, "unit": "L/h"},
      {"measurement": "IIV Q/F, bootstrap median estimate", "setting": "[20]; bootstrap (1,000 runs)", "value": 26.5},
      {"measurement": "IIV V2/F, bootstrap median estimate", "setting": "[20]; bootstrap (1,000 runs)", "value": 107},
      {"measurement": "IIV V3/F, bootstrap median estimate", "setting": "[20]; bootstrap (1,000 runs)", "value": 22.9},
      {"measurement": "Q/F, bootstrap median estimate", "setting": "[20]; bootstrap (1,000 runs)", "value": 63.1, "unit": "L/h"},
      {"measurement": "V2/F, bootstrap median estimate", "setting": "[20]; bootstrap (1,000 runs)", "value": 15.9, "unit": "L"},
      {"measurement": "V3/F, bootstrap median estimate", "setting": "[20]; bootstrap (1,000 runs)", "value": 149, "unit": "L"},
      {"measurement": "CL/F, estimate (%SE)", "setting": "[20]; final population PK model", "value": "3.69 (3) liters/h"},
      {"measurement": "Q/F, estimate (%SE)", "setting": "[20]; final population PK model", "value": "63 (15) liters/h"},
      {"measurement": "V2/F, estimate (%SE)", "setting": "[20]; final population PK model", "value": "14.9 (30) liters"},
      {"measurement": "V3/F, estimate (%SE)", "setting": "[20]; final population PK model", "value": "150 (6) liters"},
      {"measurement": "IIV Q/F, estimate (%SE)", "setting": "[20]; random effects, final model", "value": "27.3 (37)"},
      {"measurement": "IIV V2/F, estimate (%SE)", "setting": "[20]; random effects, final model", "value": "111 (37)"},
      {"measurement": "IIV V3/F, estimate (%SE)", "setting": "[20]; random effects, final model", "value": "23.3 (30)"},
      {"measurement": "No. (%) of subjects with AE: Musculoskeletal chest pain", "setting": "[21]; single dose 5 mg (n = 6)", "value": "0 No. (%)"},
      {"measurement": "No. (%) of subjects with AE: Musculoskeletal chest pain", "setting": "[21]; single dose 5 mg, fed (n = 5)", "value": "0 No. (%)"},
      {"measurement": "No. (%) of subjects with AE: Musculoskeletal chest pain", "setting": "[21]; single dose 15 mg (n = 6)", "value": "0 No. (%)"},
      {"measurement": "No. (%) of subjects with AE: Musculoskeletal chest pain", "setting": "[21]; single dose 25 mg (n = 6)", "value": "1 (17) No. (%)"}
    ]}
  ]
}
